Values joined by “and” are separate entries in the source; they are usually repeats but may differ in a detail not shown here. Equal values may be shown once. Read-outs that look alike come from different tables or passages of the source.
Tests used:
human recombinant GCL = human recombinant GCL (Homo sapiens (Human), UniProt P48506); assay: GCL enzyme profiling assay (ADP-Glo luminescence); format: biochemical; conditions: read-out: GCL IC50
How it was run: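 ADP-Glo luminescence readout; 5 nM enzyme preincubated 1 h at 22 °C with 0.6 mM ATP, then started with 1 mM glutamate and 1.2 mM α-aminobutyrate, stopped after 2 h. Buffer: HEPES pH 7.5, MgCl2, DTT, BSA, 0.2% F-127, 1% DMSO. IC50 from four-parameter logistic fit.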

RKN cells = assay: RKN cell profiling assay (cell viability, CellTiter-Glo); format: cell-based; conditions: read-out: Cell Killing EC50
How it was run: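 Cells seeded at 1,000/well in F-12 with 10% FBS, left to adhere 24 h, then compound-treated for 96 h at 0.5% final DMSO. Viability by CellTiter-Glo luminescence; EC50 from four-parameter logistic fit. Ferroptosis rescue runs included 1.5 μM ferrostatin-1 added at seeding.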

[1] = human recombinant GCL 5 nM, 1 h preincubation with ATP

human recombinant GCL, sequence (P48506 whole entry): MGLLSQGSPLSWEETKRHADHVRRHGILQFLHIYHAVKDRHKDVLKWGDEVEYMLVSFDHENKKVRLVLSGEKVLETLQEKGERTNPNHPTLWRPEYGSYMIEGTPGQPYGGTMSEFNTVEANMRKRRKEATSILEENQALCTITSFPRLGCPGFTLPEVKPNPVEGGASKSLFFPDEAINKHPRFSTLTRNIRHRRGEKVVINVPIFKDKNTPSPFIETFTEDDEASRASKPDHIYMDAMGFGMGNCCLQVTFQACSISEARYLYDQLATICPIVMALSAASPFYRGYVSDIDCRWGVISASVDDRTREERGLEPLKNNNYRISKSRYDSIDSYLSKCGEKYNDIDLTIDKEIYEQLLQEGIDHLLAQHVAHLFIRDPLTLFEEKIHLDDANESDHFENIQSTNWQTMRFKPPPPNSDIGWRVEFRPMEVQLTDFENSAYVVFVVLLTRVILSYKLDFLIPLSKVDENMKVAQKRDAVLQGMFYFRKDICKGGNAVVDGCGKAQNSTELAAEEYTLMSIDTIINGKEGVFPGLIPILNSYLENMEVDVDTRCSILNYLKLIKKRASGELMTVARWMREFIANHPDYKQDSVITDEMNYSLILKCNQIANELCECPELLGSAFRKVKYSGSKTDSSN

| IC50 (human recombinant GCL; [1]) | IC50 (human recombinant GCL; human recombinant GCL, ADP-Glo) [µM] | SMILES | EC50 (RKN cells; 96 h, 96 h exposure) [µM] | EC50 (RKN cells; cell viability) [µM] |
| --- | --- | --- | --- | --- |
| – | ≤ 20 | CCCc1ccc(C(CCS(=N)(=O)CC[C@H](N)C(=O)O)C(F)(F)F)cc1 (stereo partly drawn) [Compound 223] | – | < 1000 |
| 20 to 2000 µM | – | N=S(=O)(CC[C@H](N)C(=O)O)CCC1(CO)CCC1 (stereo partly drawn) [Compound 182] | < 1000 | – |
| – | > 2000 | N[C@@H](CCS(=O)(=O)CCC1(c2ccccn2)CCC1)C(=O)O [compound 390] | – | ≥ 1000 |
| – | ≤ 20 | N=S(=O)(CC[C@H](N)C(=O)O)CCC(O)(C1CCC1)C(F)(F)F (stereo partly drawn) [Compound 357] | – | ≥ 1000 |
| ≤ 20 µM and 20 to 2000 µM | – | N=S(=O)(CCCC(F)(F)F)CC[C@H](N)c1ncn[nH]1 (stereo partly drawn) [Compound 205, (1S)-1-(1H-1,2,4-triazol-5-yl)-3-(4,4,4-trifluorobutylsulfonimidoyl)propan-1-amine] | ≥ 1000 | – |
| – | 20 to 2000 | N=S(=O)(CC[C@H](N)C(=O)O)CCC(O)(Cc1ccccc1)C(F)(F)F (stereo partly drawn) [Compound 354] | – | ≥ 1000 |
| > 2000 µM | – | CCCCS(=N)(=O)CC[C@H](NC(=O)OC)C(=O)OC (stereo partly drawn) [Compound 198, (2S)-methyl 4-(butylsulfonimidoyl)-2-((methoxycarbonyl)amino)butanoate] | ≥ 1000 | – |
| – | ≤ 20 | N=S(=O)(CCC(c1ccc(-c2cncc(C(F)(F)F)c2)cc1)C(F)(F)F)CC[C@H](N)C(=O)O (stereo partly drawn) [Compound 250] | – | ≥ 1000 |
| – | ≤ 20 | N=S(=O)(CCC(n1nc2ccccc2n1)C(F)(F)F)CC[C@H](N)C(=O)O (stereo partly drawn) [Compound 410] | – | ≥ 1000 |
| – | ≤ 20 | N=S(=O)(CCC(c1ccc2[nH]ncc2c1)C(F)(F)F)CC[C@H](N)C(=O)O (stereo partly drawn) [Compound 386, (2S)-2-amino-4-(4,4,4-trifluoro-3-(1H-indazol-5-yl)butylsulfonimidoyl)butanoic acid] | – | < 1000 |
| – | ≤ 20 | N=S(=O)(CCC(c1ccc(-c2ccc(OC(F)(F)F)cc2)cc1)C(F)(F)F)CC[C@H](N)C(=O)O (stereo partly drawn) [Compound 233] | – | < 1000 |
| – | ≤ 20 | Cc1cc(C(O)(CCS(=N)(=O)CC[C@H](N)C(=O)O)C(F)(F)F)ccc1-c1ccc(O)c(F)c1 (stereo partly drawn) [Compound 455] | – | ≥ 1000 |
| – | ≤ 20 | CC(=O)N(c1ccc(C(O)(CC[S@SP3](=N)(=O)CCC(N)C(=O)O)C(F)(F)F)cc1)c1nccs1 (stereo not drawn) [compound 504] | – | ≥ 1000 |
| – | > 2000 | CC(C)(C)OC(=O)[C@@H](N)CC[S@](=N)(=O)CC[C@@H](O)C(F)(F)F [Compound 492] | – | ≥ 1000 |
| – | 20 to 2000 | N=S(=O)(CC[C@H](N)C(=O)O)CCC(O)(c1ccc(-n2cccn2)cc1)C(F)(F)F (stereo partly drawn) [Compound 426, (2S)-4-(3-(4-(1H-pyrazol-1-yl)phenyl)-4,4,4-trifluoro-3-hydroxybutylsulfonimidoyl)-2-aminobutanoic acid] | – | ≥ 1000 |
| ≤ 20 µM | – | Cc1ccc(CCS(=N)(=O)CC[C@H](N)C(=O)O)c(F)c1 (stereo partly drawn) [Compound 37] | ≥ 1000 | – |
| – | > 2000 | N[C@@H](CCS(=O)(=O)CCC(O)C(F)(F)F)C(=O)O (stereo partly drawn) [compound 516] | – | ≥ 1000 |
| > 2000 µM | – | CCCCOC(=O)[C@@H](N)CCS(=N)(=O)CCCC(F)(F)F (stereo partly drawn) [Compound 79] | < 1000 | – |
| – | 20 to 2000 | N=S(=O)(CC[C@H](N)C(=O)O)CCC1(c2cccc(F)c2)CCC1 (stereo partly drawn) [Compound 385, (2S)-2-amino-4-[2-[1-(3-fluorophenyl)cyclobutyl]ethylsulfonimidoyl]butanoic acid] | – | < 1000 |
| – | 20 to 2000 | N=S(=O)(CC[C@H](N)C(=O)O)CCC(O)(c1ccc(C(F)(F)F)nc1)C(F)(F)F (stereo partly drawn) [Compound 365] | – | ≥ 1000 |
| > 2000 µM | – | CCCCS(=O)(CC[C@H](N)C(=O)OC)=NC(C)=O (stereo partly drawn) [Compound 197, (2S)-methyl 4-(N-acetylbutylsulfonimidoyl)-2-aminobutanoate] | ≥ 1000 | – |
| ≤ 20 µM | – | Cc1ccc(CCS(=N)(=O)CC[C@H](N)C(=O)O)cc1 (stereo partly drawn) [Compound 11] | ≥ 1000 | – |
| – | ≤ 20 | N=S(=O)(CC[C@H](N)C(=O)O)CCC1(c2ncc(-c3ccc(Cl)cc3Cl)cn2)CCC1 (stereo partly drawn) [Compound 498, (2S)-2-amino-4-(2-(1-(5-(2,4-dichlorophenyl)pyrimidin-2-yl)cyclobutyl)ethylsulfonimidoyl) butanoic acid] | – | < 1000 |
| > 2000 µM | – | CCCCOC(=O)[C@@H](N)CCS(=N)(=O)CCC1CCCC1 (stereo partly drawn) [Compound 77] | < 1000 | – |
| – | ≤ 20 | N=S(=O)(CCC(c1ccc(CCC(F)(F)F)cc1)C(F)(F)F)CC[C@H](N)C(=O)O (stereo partly drawn) [Compound 213, (2S)-2-amino-4-(4,4,4-trifluoro-3-(4-(3,3,3-trifluoropropyl)phenyl)butylsulfonimidoyl)butanoic acid] | – | ≥ 1000 |
| – | ≤ 20 | N=S(=O)(CC[C@H](N)C(=O)O)CCC(O)(c1ccc(-c2ccc(Cl)cc2Cl)cn1)C(F)(F)F (stereo partly drawn) [Compound 463] | – | < 1000 |
| – | ≤ 20 | N#Cc1cc(-c2ccc(C(O)(CCS(=N)(=O)CC[C@H](N)C(=O)O)C(F)(F)F)cc2)ccc1O (stereo partly drawn) [Compound 454] | – | ≥ 1000 |
| – | 20 to 2000 | CCCCOC(=O)[C@@H](N)CCS(=N)(=O)CCC(O)(c1ccc(-c2ccc(Cl)cc2Cl)cc1)C(F)(F)F (stereo partly drawn) [Compound 485] | – | < 1000 |

The remaining lines, values behind:

| SMILES | IC50 (human recombinant GCL; [1]) | IC50 (human recombinant GCL; human recombinant GCL, ADP-Glo) [µM] | EC50 (RKN cells; 96 h, 96 h exposure) [µM] | EC50 (RKN cells; cell viability) [µM] |
| --- | --- | --- | --- | --- |
| CC(C)(C)CC[S@@](=N)(=O)CC[C@H](N)C(=O)Nc1cccnc1 (single isomer, unassigned) [Compound 102] | > 2000 µM | – | ≥ 1000 | – |
| N=S(=O)(CC[C@H](N)C(=O)O)CCN1CCCC1=O (stereo partly drawn) [Compound 145] | > 2000 µM | – | ≥ 1000 | – |
| CCC(O)(CCS(=N)(=O)CC[C@H](N)C(=O)O)C(F)(F)F (stereo partly drawn) [Compound 352] | – | 20 to 2000 | – | < 1000 |
| N=S(=O)(CCC(c1ccc2ccccc2c1)C(F)(F)F)CC[C@H](N)C(=O)O (stereo partly drawn) [Compound 310] | – | ≤ 20 | – | < 1000 |
| N=[S@@](=O)(CC[C@H](N)C(=O)O)CCC1(CO)CCC1 [compound 515] | – | ≤ 20 | – | < 1000 |
| N=S(=O)(CCC1CCOCC1)CC[C@H](N)C(=O)O (stereo partly drawn) [Compound 157] | 20 to 2000 µM | – | ≥ 1000 | – |
| Cc1ccc(CCS(=N)(=O)CC[C@H](N)C(=O)O)c(Cl)c1 (stereo partly drawn) [Compound 43] | ≤ 20 µM | – | ≥ 1000 | – |
| N=S(=O)(CC[C@H](N)C(=O)O)CCC(O)(c1ncccn1)C(F)(F)F (stereo partly drawn) [Compound 363] | – | 20 to 2000 | – | < 1000 |
| Cc1ccc(C(F)(F)F)c(CCS(=N)(=O)CC[C@H](N)C(=O)O)c1 (stereo partly drawn) [Compound 44] | ≤ 20 µM | – | ≥ 1000 | – |
| CN(C)C(=O)[C@@H](N)CCS(=N)(=O)CCC(C)(C)C (stereo partly drawn) [Compound 115] | > 2000 µM | – | ≥ 1000 | – |
| N#CC1CC=C(c2ccc(C(CCS(=N)(=O)CC[C@H](N)C(=O)O)C(F)(F)F)cc2)CC1 (stereo partly drawn) [Compound 214, (2S)-2-amino-4-(3-(4′-cyano-2′,3′,4′,5′-tetrahydro-[1,1′-biphenyl]-4-yl)-4,4,4-trifluorobutylsulfonimidoyl)butanoic acid] | – | ≤ 20 | – | ≥ 1000 |
| N=S(=O)(CC[C@H](N)C(=O)O)CCC1(F)CCC1 (stereo partly drawn) [Compound 173] | 20 to 2000 µM | – | < 1000 | – |
| N[C@H]1CCS(=O)(CCCC(F)(F)F)=NC1=O (stereo partly drawn) [Compound 202, (1S,4R)-4-amino-1-(4,4,4-trifluorobutyl)-5,6-dihydro-1,2-thiazin-3 (4H)-one 1-oxide] | 20 to 2000 µM | – | < 1000 | – |
| N=S(=O)(CCCC(F)(F)F)CC[C@H](N)C(=O)OCC1CCCCC1 (stereo partly drawn) [Compound 81] | 20 to 2000 µM | – | < 1000 | – |
| N=S(=O)(CC[C@H](N)C(=O)O)CCC1(NC(N)=O)CCC1 (stereo partly drawn) [Compound 206, (2S)-2-amino-4-(2-(1-ureidocyclobutyl)ethylsulfonimidoyl)butanoic acid] | 20 to 2000 µM | – | < 1000 | – |
| CC(C)OC(=O)[C@@H](N)CCS(=N)(=O)CCCC(F)(F)F (stereo partly drawn) [Compound 88] | 20 to 2000 µM | – | < 1000 | – |
| N=S(=O)(CC[C@H](N)C(=O)O)CC[C@H](O)C(F)(F)F (single isomer, unassigned) [Compound 327] | – | > 2000 | – | ≥ 1000 |
| N=S(=O)(CCC(c1c[nH]c2ccccc12)C(F)(F)F)CC[C@H](N)C(=O)O (stereo partly drawn) [Compound 64] | ≤ 20 µM | – | < 1000 | – |
| COC(=O)[C@@H](N)CCS(=N)(=O)CCCC1CC1 (stereo partly drawn) [Compound 71, (2S)-methyl 2-amino-4-(3-cyclopropylpropylsulfonimidoyl)butanoate] | 20 to 2000 µM | – | ≥ 1000 | – |
| N=S(=O)(CC[C@H](N)C(=O)O)CCC(O)(C1CCN(c2ccc(Cl)cc2Cl)CC1)C(F)(F)F (stereo partly drawn) [Compound 379] | – | ≤ 20 | – | < 1000 |
| N[C@@H](CCS(=O)(=O)CCC(O)(c1ccon1)C(F)(F)F)C(=O)O (stereo partly drawn) [Compound 369] | – | 20 to 2000 | – | ≥ 1000 |
| N=S(=O)(CC[C@H](N)C(=O)O)CCC(O)(c1ccc(-c2ccc(C(F)(F)F)cc2Cl)cc1)C(F)(F)F (stereo partly drawn) [Compound 441] | – | 20 to 2000 | – | < 1000 |
| N=S(=O)(CC[C@H](N)C(=O)O)CCC(O)(c1ccc(-c2cccc3ccccc23)cc1)C(F)(F)F (stereo partly drawn) [Compound 444] | – | ≤ 20 | – | < 1000 |
| N=S(=O)(CC[C@H](N)C(=O)O)CCC1(n2ncc(-c3ccccc3)n2)CCC1 (stereo partly drawn) [Compound 420] | – | ≤ 20 | – | ≥ 1000 |
| COCC(CCS(=N)(=O)CC[C@H](N)C(=O)O)C(F)(F)F (stereo partly drawn) [Compound 319] | – | 20 to 2000 | – | < 1000 |
| N=S(=O)(CCCC(O)(c1ccc(-c2ccccc2)cc1)C(F)(F)F)CC[C@H](N)C(=O)O (stereo partly drawn) [Compound 335] | – | 20 to 2000 | – | ≥ 1000 |
